This is an account of results in patent US9238656B2, “Imidazo[4,5-b]pyridine derivatives as ALK and JAK modulators for the treatment of proliferative disorders” (priority 2012, dated 2016).

Data set [1] has as its target baculovirus-expressed ALK (Homo sapiens, UniProt Q9UM73). Put plainly: ALK kinase inhibition, TRF/ELISA. The data set is classed as biochemical. To be noted: read-out: ALK Potency. The method in brief:
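Plates were coated with GST-PLC-γ substrate (10 μg/mL) and the reaction was started with 30 ng/mL ALK, running 15 min at 37° C. Phosphotyrosine was detected by time-resolved fluorescence with Eu-labeled PT66 antibody. IC50s came from variable-slope sigmoidal fits of percent inhibition versus log concentration.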
On the technique in general: In an ELISA, binding on a coated surface is turned into a signal by an enzyme label.

Data set [2] concerns the target baculovirus-expressed JAK2 kinase (Homo sapiens, UniProt O60674). Description: biochemical. Particulars: 0.2 μM ATP; read-out: JAK2 Potency. The method, boiled down: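 Time-resolved fluorescence kinase assay using 15 ng/mL baculovirus-expressed JAK2 on Neutravidin-captured biotinylated 15-mer peptide substrate, reaction 20 min at room temperature. IC50 from percent inhibition versus log concentration, sigmoidal variable-slope fit.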

Bounds are passed on as bounds.

Sequence of baculovirus-expressed ALK (Q9UM73 19-1620): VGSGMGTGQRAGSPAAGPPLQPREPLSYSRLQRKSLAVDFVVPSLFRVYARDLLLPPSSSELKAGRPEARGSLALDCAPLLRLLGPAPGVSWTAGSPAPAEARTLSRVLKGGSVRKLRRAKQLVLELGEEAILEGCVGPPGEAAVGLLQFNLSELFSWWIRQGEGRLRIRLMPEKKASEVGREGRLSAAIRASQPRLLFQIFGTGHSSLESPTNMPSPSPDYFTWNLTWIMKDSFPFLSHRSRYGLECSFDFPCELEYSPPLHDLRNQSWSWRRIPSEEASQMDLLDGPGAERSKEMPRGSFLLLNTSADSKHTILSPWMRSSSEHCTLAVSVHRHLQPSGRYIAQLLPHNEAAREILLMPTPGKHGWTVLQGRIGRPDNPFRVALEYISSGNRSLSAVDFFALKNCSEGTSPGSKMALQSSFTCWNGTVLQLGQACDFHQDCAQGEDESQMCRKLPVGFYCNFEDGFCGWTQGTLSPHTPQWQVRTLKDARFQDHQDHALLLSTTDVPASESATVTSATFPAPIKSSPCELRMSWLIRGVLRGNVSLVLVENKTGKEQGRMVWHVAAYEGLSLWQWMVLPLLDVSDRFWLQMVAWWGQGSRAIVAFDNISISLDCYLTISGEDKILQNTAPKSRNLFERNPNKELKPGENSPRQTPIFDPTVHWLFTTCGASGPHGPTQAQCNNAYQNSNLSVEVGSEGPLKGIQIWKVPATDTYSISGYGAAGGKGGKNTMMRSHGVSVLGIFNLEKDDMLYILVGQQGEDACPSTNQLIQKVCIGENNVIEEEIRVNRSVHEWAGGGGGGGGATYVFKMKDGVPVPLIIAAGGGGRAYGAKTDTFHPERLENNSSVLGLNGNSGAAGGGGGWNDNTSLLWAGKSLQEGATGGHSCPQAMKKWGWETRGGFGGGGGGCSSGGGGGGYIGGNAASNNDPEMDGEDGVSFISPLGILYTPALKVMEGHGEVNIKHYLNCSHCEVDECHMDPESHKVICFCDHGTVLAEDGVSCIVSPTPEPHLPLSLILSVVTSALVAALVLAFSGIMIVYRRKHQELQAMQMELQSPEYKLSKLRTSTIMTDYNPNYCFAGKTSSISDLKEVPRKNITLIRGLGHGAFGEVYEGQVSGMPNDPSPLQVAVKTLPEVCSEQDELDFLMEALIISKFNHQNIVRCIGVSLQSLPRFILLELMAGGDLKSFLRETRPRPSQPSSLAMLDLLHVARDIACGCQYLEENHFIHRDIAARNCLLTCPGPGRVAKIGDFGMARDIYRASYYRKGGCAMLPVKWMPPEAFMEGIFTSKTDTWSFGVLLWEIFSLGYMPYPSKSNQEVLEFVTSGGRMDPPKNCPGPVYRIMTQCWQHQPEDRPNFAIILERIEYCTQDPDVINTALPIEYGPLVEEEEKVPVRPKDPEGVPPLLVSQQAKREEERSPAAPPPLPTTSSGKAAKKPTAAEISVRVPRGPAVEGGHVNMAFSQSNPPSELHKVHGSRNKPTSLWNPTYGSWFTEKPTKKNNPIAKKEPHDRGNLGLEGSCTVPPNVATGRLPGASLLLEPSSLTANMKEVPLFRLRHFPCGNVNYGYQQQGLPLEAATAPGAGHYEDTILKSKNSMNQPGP
Sequence of baculovirus-expressed JAK2 kinase (O60674 whole entry): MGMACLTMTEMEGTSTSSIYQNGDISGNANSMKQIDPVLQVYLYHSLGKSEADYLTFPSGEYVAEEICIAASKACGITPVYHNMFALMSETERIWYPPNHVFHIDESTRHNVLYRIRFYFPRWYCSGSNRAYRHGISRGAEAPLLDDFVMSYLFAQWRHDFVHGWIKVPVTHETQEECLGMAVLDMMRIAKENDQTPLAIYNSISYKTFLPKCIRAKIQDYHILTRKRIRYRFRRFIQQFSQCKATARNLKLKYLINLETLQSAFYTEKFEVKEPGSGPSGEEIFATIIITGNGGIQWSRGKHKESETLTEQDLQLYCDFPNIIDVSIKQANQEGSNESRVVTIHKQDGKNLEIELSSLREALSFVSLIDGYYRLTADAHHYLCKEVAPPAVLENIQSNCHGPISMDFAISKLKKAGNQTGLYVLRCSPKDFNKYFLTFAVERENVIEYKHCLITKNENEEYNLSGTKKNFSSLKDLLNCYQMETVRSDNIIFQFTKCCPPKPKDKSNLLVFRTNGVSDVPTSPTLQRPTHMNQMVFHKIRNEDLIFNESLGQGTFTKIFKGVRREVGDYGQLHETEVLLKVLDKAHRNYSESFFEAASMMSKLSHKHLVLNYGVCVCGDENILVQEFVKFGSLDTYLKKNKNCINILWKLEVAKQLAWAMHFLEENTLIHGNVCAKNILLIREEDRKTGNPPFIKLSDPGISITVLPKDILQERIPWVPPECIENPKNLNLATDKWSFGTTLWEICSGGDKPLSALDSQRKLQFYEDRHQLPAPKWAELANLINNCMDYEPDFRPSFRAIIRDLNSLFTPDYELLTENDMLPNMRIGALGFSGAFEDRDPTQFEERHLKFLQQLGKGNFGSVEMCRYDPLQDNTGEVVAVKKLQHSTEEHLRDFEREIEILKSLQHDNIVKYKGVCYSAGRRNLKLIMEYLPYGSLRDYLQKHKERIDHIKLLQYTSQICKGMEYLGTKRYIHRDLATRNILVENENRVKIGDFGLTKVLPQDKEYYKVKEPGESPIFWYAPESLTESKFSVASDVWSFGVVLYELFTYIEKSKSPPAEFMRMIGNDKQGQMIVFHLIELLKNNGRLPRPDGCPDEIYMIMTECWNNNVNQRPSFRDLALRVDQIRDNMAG

One may read the melting point as the temperature of the solid-liquid transition. On to `CN1CCN(c2ccc(-c3nc4c(N[C@@H]5[C@H]6CC[C@H](C6)[C@@H]5C(N)=O)c(Br)cnc4[nH]3)cc2)CC1` [Compound CXIII, (1R,2S,3R,4S)-3-{6-Bromo-2-[4-(4-methyl-piperazin-1-yl)-phenyl]-3H-imidazo[4,5-b]pyridin-7-ylamino}-bicyclo[2.2.1]heptane-2-carboxylic acid amide], for which the melting point fell in the range of 256 to 258 °C. In data set [1], the IC50 was under 100 nM. In addition, in data set [2], the IC50 was under 100 nM.

Regarding `COc1cc(CN2CCN(C(C)=O)CC2)ccc1-c1nc2c(N[C@H]3[C@@H](C(N)=O)[C@@H]4C=C[C@H]3C4)c(Cl)cnc2[nH]1` [Compound LI], the melting point is 109 to 113 °C. Also, the IC50 in data set [1] is under 100 nM. For the same compound, the IC50 in data set [2] is under 100 nM.

Compound `Cn1cccc1-c1nc2c(N[C@H]3[C@@H](C(N)=O)[C@@H]4C=C[C@H]3C4)c(Br)cnc2[nH]1` [Compound CIX, (1S,2S,3R,4R)-3-[6-Bromo-2-(1-methyl-1H-pyrrol-2-yl)-3H-imidazo[4,5-b]pyridin-7-ylamino]-bicyclo[2.2.1]hept-5-ene-2-carboxylic acid amide] registered a melting point of 293 to 295 °C. In addition, in data set [1], the IC50 is under 100 nM. Besides, the IC50 in data set [2] was under 100 nM.

`COc1c(CN2CCOCC2)cccc1-c1nc2c(N[C@H]3[C@@H](C(N)=O)[C@@H]4C=C[C@H]3C4)c(Cl)cnc2[nH]1` [Compound LIII, (1S,2S,3R,4R)-3-[6-Chloro-2-(2-methoxy-3-morpholin-4-ylmethyl-phenyl)-3H-imidazo[4,5-b]pyridine-7-ylamino]-bicyclo[2.2.1]hept-5-ene-2-carboxylic acid amide] registered a melting point of 133 to 137 °C. For the same compound, the IC50 in data set [1] was under 100 nM. The IC50 in data set [2] was under 100 nM.

Take `CN(C)c1ccc(-c2nc3c(N[C@H]4[C@@H](C(N)=O)[C@@H]5C=C[C@H]4C5)c(Br)cnc3[nH]2)cc1` [Compound LXXVI, (1S,2S,3R,4R)-3-[6-Bromo-2-(4-dimethylamino-phenyl)-3H-imidazo[4,5-b]pyridin-7-ylamino]-bicyclo[2.2.1]hept-5-ene-2-carboxylic acid amide]: the melting point was 264 to 265 °C. In data set [1], the IC50 is under 100 nM. For the same compound, in data set [2], the IC50 is under 100 nM.

On to `NC(=O)[C@@H]1[C@H](Nc2c(Cl)cnc3[nH]c(-c4cccc(C(=O)N5CCNC(C(=O)O)C5)c4)nc23)[C@H]2C=C[C@@H]1C2` (stereo partly drawn) [Compound CCXXV, 4-(3-(7-((1R,2R,3S,4S)-3-carbamoylbicyclo[2.2.1]hept-5-en-2-ylamino)-6-chloro-3H-imidazo[4,5-b]pyridine-2-yl)benzoyl)piperazine-2-carboxylic acid], for which the melting point was 261 °C. For the same compound, the IC50 in data set [1] was 100 to 1000 nM. Moreover, the IC50 in data set [2] is under 100 nM.

Consider `Cn1cc(-c2nc3c(N[C@H]4[C@@H](C(N)=O)[C@@H]5C=C[C@H]4C5)ccnc3[nH]2)cn1` [XCIV, (1S,2S,3R,4R)-3-[2-(1-Methyl-1H-pyrazol-4-yl)-3H-imidazo[4,5-b]pyridin-7-ylamino]-bicyclo[2.2.1]hept-5-ene-2-carboxylic acid amide], for which the melting point fell in the range of 236 to 238 °C. Further, the IC50 in data set [1] is over 10000 nM. Also, the IC50 in data set [2] lay within 1000 to 10000 nM.

In turn, `COc1cc(C2CCN(C[C@@H](O)CO)CC2)ccc1-c1nc2c(N[C@H]3[C@@H](C(N)=O)[C@@H]4C=C[C@H]3C4)c(Cl)cnc2[nH]1` [Compound CXVIII, (1S,2S,3R,4R)-3-(6-Chloro-2-{4-[1-((R)-2,3-dihydroxy-propyl)-piperidin-4-yl]-2-methoxy-phenyl}-3H-imidazo[4,5-b]pyridin-7-ylamino)-bicyclo[2.2.1]hept-5-ene-2-carboxylic acid amide] came in with a melting point of 209 to 211 °C. The IC50 in data set [1] is under 100 nM. In addition, the IC50 in data set [2] was under 100 nM.

Turning to `NC(=O)[C@@H]1[C@H](Nc2c(Br)cnc3[nH]c(-c4ccsc4)nc23)[C@H]2C=C[C@@H]1C2` [Compound CXI, (1S,2S,3R,4R)-3-(6-Bromo-2-thiophen-3-yl-3H-imidazo[4,5-b]pyridin-7-ylamino)-bicyclo[2.2.1]hept-5-ene-2-carboxylic acid amide], the melting point lay within 238 to 241 °C. In addition, the IC50 in data set [1] was under 100 nM. In addition, the IC50 in data set [2] is under 100 nM.

On to `COc1cc(N2CCN(C)CC2)ccc1-c1nc2c(N[C@H]3[C@@H](C(N)=O)[C@@H]4C=C[C@H]3C4)ccnc2[nH]1` [Compound XCV, (1S,2S,3R,4R)-3-{2-[2-Methoxy-4-(4-methyl-piperazin-1-yl)-phenyl]-3H-imidazo[4,5-b]pyridin-7-ylamino}-bicyclo[2.2.1]hept-5-ene-2-carboxylic acid amide], for which the melting point lay in the range of 185 to 195 °C. In addition, the IC50 in data set [1] lay in the range of 1000 to 10000 nM. Besides, in data set [2], the IC50 is 1000 to 10000 nM.

As for `COc1ncccc1-c1nc2c(N[C@H]3[C@@H](C(N)=O)[C@@H]4C=C[C@H]3C4)c(Br)cnc2[nH]1` [Compound CI, (1S,2S,3R,4R)-3-[6-Bromo-2-(2-methoxy-pyridin-3-yl)-3H-imidazo[4,5-b]pyridin-7-ylamino]-bicyclo[2.2.1]hept-5-ene-2-carboxylic acid amide], the melting point came to 201 °C. In addition, the IC50 in data set [1] is under 100 nM. Also, in data set [2], the IC50 is under 100 nM.

For the compound `COc1cc(N2CCC(N3CCOCC3)CC2)ccc1-c1nc2c(N[C@H]3[C@@H](C(N)=O)[C@@H]4C=C[C@H]3C4)c(Br)cnc2[nH]1` [Compound XCVII, (1S,2S,3R,4R)-3-{6-Bromo-2-[2-methoxy-4-(4-morpholin-4-yl-piperidin-1-yl)-phenyl]-3H-imidazo[4,5-b]pyridin-7-ylamino}-bicyclo[2.2.1]hept-5-ene-2-carboxylic acid amide], the melting point lay within 185 to 195 °C. Moreover, in data set [1], the IC50 was under 100 nM. For the same compound, the IC50 in data set [2] is under 100 nM.

Turning to `CN(C)c1cccc(-c2nc3c(N[C@H]4[C@@H](C(N)=O)[C@@H]5C=C[C@H]4C5)ccnc3[nH]2)c1` [Compound LXXXVII, (1S,2S,3R,4R)-3-[2-(3-Dimethylamino-phenyl)-3H-imidazo[4,5-b]pyridin-7-ylamino]-bicyclo[2.2.1]hept-5-ene-2-carboxylic acid amide], the melting point is 200 to 204 °C. Moreover, the IC50 in data set [1] is over 10000 nM. Further, the IC50 in data set [2] was 1000 to 10000 nM.

Compound `COc1cc(C2CCN(C)CC2)ccc1-c1nc2c(N[C@H]3[C@@H](C(N)=O)[C@@H]4C=C[C@H]3C4)c(Cl)cnc2[nH]1` [Compound CXVII, (1S,2S,3R,4R)-3-{6-Chloro-2-[2-methoxy-4-(1-methyl-piperidin-4-yl)-phenyl]-3H-imidazo[4,5-b]pyridin-7-ylamino}-bicyclo[2.2.1]hept-5-ene-2-carboxylic acid amide] returned a melting point of 232 to 235 °C. Further, the IC50 in data set [1] is under 100 nM. The IC50 in data set [2] was under 100 nM.

Compound `NC(=O)[C@@H]1[C@H](Nc2c(Cl)cnc3[nH]c(-c4ccc(C(=O)NCC(=O)O)cc4)nc23)[C@H]2C=C[C@@H]1C2` [Compound CCXXVIII, 2-(4-(7-((1R,2R,3S,4S)-3-carbamoylbicyclo[2.2.1]hept-5-en-2-ylamino)-6-chloro-3H-imidazo[4,5-b]pyridine-2-yl)benzamido)acetic acid] had a melting point of 291 °C. Also, the IC50 in data set [1] fell in the range of 100 to 1000 nM. Further, the IC50 in data set [2] is under 100 nM.

As to `Cn1cc(-c2nc3c(N[C@H]4[C@@H](C(N)=O)[C@@H]5C=C[C@H]4C5)c(Br)cnc3[nH]2)cn1` [Compound LXXXV, (1S,2S,3R,4R)-3-[6-Bromo-2-(1-methyl-1H-pyrazol-4-yl)-3H-imidazo[4,5-b]pyridin-7-ylamino]-bicyclo[2.2.1]hept-5-ene-2-carboxylic acid amide], the melting point lay within 255 to 258 °C. The IC50 in data set [1] is 100 to 1000 nM. For the same compound, the IC50 in data set [2] was under 100 nM.

Take `CN1CCN(c2ccc(-c3nc4c(N[C@H]5[C@@H](C(N)=O)[C@@H]6C=C[C@H]5C6)ccnc4[nH]3)cc2)CC1` [Compound LXXXVIII, (1S,2S,3R,4R)-3-{2-[4-(4-Methyl-piperazin-1-yl)-phenyl]-3H-imidazo[4,5-b]pyridin-7-ylamino}-bicyclo[2.2.1]hept-5-ene-2-carboxylic acid amide]: the melting point lay within 220 to 222 °C. Further, the IC50 in data set [1] lay in the range of 1000 to 10000 nM. Moreover, in data set [2], the IC50 was 1000 to 10000 nM.

On to `COc1ccncc1-c1nc2c(N[C@H]3[C@@H](C(N)=O)[C@@H]4C=C[C@H]3C4)c(Br)cnc2[nH]1` [Compound CIII, (1S,2S,3R,4R)-3-[6-Bromo-2-(4-methoxy-pyridin-3-yl)-3H-imidazo[4,5-b]pyridin-7-ylamino]-bicyclo[2.2.1]hept-5-ene-2-carboxylic acid amide], for which the melting point turned out to be 160 °C. Moreover, the IC50 in data set [1] is under 100 nM. In data set [2], the IC50 is 100 to 1000 nM.

In turn, `NC(=O)[C@@H]1[C@H](Nc2c(Cl)cnc3[nH]c(-c4ccc5c(c4)CCC4(CCNCC4)O5)nc23)[C@H]2C=C[C@@H]1C2` [Compound CXV, (1S,2S,3R,4R)-3-[(6-chloro-2-spiro[chromane-2,4′-piperidine]-6-yl-3H-imidazo[4,5-b]pyridin-7-yl)amino]bicyclo[2.2.1]hept-5-ene-2-carboxamide] showed a melting point of over 250 °C. Moreover, the IC50 in data set [1] was under 100 nM. The IC50 in data set [2] was under 100 nM.

With `CC(C)(C)OC(=O)N1CCCC(c2nc3c(N[C@H]4[C@@H](C(N)=O)[C@@H]5C=C[C@H]4C5)c(Br)cnc3[nH]2)C1` (stereo partly drawn) [Compound LXXXII, 3-[6-Bromo-7-((1R,2R,3S,4S)-3-carbamoyl-bicyclo[2.2.1]hept-5-en-2-ylamino)-3H-imidazo[4,5-b]pyridin-2-yl]-piperidine-1-carboxylic acid tert-butyl], the melting point lay within 172 to 177 °C. Besides, the IC50 in data set [1] was 100 to 1000 nM. The IC50 in data set [2] lay within 100 to 1000 nM.
